# Test results: PMC11503522, “Native Mass Spectrometry of Membrane Protein–Lipid Interactions in Different Detergent Environments” (Analytical Chemistry, 2024)
# T1: AmtB-GlnK complex (Escherichia coli, UniProt P69681)
# T1 construct: with Nitrogen regulatory protein GlnK
# T1 sequence (P69681 23-428): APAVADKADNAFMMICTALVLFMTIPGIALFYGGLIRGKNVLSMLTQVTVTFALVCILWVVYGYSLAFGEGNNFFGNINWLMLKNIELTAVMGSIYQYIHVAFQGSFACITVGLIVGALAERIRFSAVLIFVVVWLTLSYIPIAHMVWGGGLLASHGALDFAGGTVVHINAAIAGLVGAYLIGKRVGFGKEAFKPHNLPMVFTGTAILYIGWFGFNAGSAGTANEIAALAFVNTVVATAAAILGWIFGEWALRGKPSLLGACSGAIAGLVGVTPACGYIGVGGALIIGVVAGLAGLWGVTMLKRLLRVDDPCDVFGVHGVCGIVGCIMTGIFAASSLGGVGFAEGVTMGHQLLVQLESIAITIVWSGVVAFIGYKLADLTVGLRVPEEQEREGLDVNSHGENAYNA
# T1 sequence (P0AC55 1-112 partner): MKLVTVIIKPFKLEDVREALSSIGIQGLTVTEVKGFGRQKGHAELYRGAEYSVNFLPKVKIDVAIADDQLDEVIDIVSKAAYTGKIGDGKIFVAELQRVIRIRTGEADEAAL
# T2: AqpZ (AqpZ-STII) (Escherichia coli, UniProt P60844)
# T2 construct: C-terminal Strep-tag II
# T2 sequence (P60844 1-231): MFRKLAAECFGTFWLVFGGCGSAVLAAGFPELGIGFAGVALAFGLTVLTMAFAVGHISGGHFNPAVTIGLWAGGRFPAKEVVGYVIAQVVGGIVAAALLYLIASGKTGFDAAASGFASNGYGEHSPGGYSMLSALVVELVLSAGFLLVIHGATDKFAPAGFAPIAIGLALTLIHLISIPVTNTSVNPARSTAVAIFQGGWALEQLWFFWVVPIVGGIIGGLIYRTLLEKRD
# T3: Aquaporin Z from Escherichia coli containing a C-terminal Strep-tag II (Escherichia coli), P60844
# T3 chain: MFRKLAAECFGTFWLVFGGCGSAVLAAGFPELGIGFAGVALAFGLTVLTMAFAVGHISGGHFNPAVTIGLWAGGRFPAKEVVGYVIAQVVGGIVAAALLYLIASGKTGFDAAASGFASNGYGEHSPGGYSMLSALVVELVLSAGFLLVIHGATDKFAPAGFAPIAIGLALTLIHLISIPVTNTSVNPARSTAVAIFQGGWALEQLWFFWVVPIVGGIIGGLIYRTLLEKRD
# How the values were obtained:
# AmtB-GlnK complex = target: T1, AmtB-GlnK complex; assay: native MS, mole fraction of lipid-bound states; type: binding; conditions: ADP present, 200 mM ammonium acetate pH 7.4
# AqpZ (AqpZ-STII) = target: T2, AqpZ (AqpZ-STII); assay: native MS lipid titration, sequential binding model; conditions: LDAO; first lipid bound; range over conditions; 200 mM ammonium acetate pH 7.4, room temperature; read-out: Kd1
# [1] = target: T3, Aquaporin Z from Escherichia coli …; assay: native MS; 1 uM AqpZ in 200 mM ammonium acetate pH 7.4 with 2x CMC detergent (C8E4 or LDAO alone; DM, OGNG, NG, C8E4 or LDAO with 5 mM SPM or 60 mM TMAO); nanoESI, Exactive Plus EMR Orbitrap, room temperature; conditions: remark: other sources report otherwise
molecule,measurement,setting,value
CCCCCCCC/C=C\CCCCCCCC(=O)O[C@H](COC(=O)CCCCCCCCCCCCCCC)COP(=O)(O)OCC(O)CO (some centres unmarked) [POPG],"native MS, mole fraction of lipid-bound states",AmtB-GlnK complex; several detergents,AmtB-GlnK in different detergent environments showed comparable binding of POPG
CCCCCCCC/C=C\CCCCCCCC(=O)O[C@H](COC(=O)CCCCCCCCCCCCCCC)COP(=O)(O)O [POPA],"native MS, mole fraction of lipid-bound states",AmtB-GlnK complex; several detergents,POPA and POPS binding to AmtB-GlnK was broadly comparable for the different detergents
CCCCCCCC/C=C\CCCCCCCC(=O)OC[C@H](COP(=O)(O)OCC(O)COP(=O)(O)OC[C@@H](COC(=O)CCCCCCC/C=C\CCCCCCCC)OC(=O)CCCCCCC/C=C\CCCCCCCC)OC(=O)CCCCCCC/C=C\CCCCCCCC (some centres unmarked) [TOCDL],"native MS, mole fraction of lipid-bound states","AmtB-GlnK complex; 2 μM complex, 25 μM lipid, C8E4, LDAO, DM or NG",binding of TOCDL was more prominent in LDAO and DM
same,Kd,AqpZ (AqpZ-STII),300 to 1400 nM
"Aquaporin Z from Escherichia coli containing a C-terminal Strep-tag II, P60844 1-231 (natural protein) MFRKLAAECFGTFWLVFGGCGSAVLAAGFPELGIGFAGVALAFGLTVLTMAFAVGHISGGHFNPAVTIGLWAGGRFPAKEVVGYVIAQVVGGIVAAALLYLIASGKTGFDAAASGFASNGYGEHSPGGYSMLSALVVELVLSAGFLLVIHGATDKFAPAGFAPIAIGLALTLIHLISIPVTNTSVNPARSTAVAIFQGGWALEQLWFFWVVPIVGGIIGGLIYRTLLEKRD",stoichiometry N,[1],4
